The results in this text go back to patent US20260199284A1, “SPECIFIC VASH COMPOUNDS (SVC) INHIBITORS FOR HEART DISEASES” (MT ACT, priority 2023, published 2026).

Molecules are shown by their SMILES.

The subject of test [1] is primary cardiomyocytes isolated from ZSF1-Lean or ZSF1 Obese rats. The experiment in a line: Cardiomyocyte stretch longitudinal stiffness. The format is cell-based, rat. Conditions: 10% strain. The procedure: FIG. 18: Reduced longitudinal stiffness upon VASH inhibition in primary cardiomyocytes isolated from ZSF1-Lean or ZSF1 Obese rats. A) Diastolic Stiffness (elastic modulus at the initial time of peak strain) upon a 10%, 200 ms strain along the long-axis of an isolated cardiomyocyte; B) Stead state stiffness upon strain and hold, and C) stress relaxation (indicator of viscoelasticity) in ZSF1-Lean and Obese cardiomyocytes.
Either freshly isolated or cultured myocytes were diluted to a sparse density (~10×) into a large (22×50 mm) glass bottom petri dish coated with BSA to prevent myocyte adhesion with Normal Tyrodes solution. A small aliquot of Myotak™ was freshly thawed and a 1.5 uL droplet was placed in a dry area of the petri dish and allowed to polymerize (2-3 min). When the droplet had become “tacky” laser etched glass rods (Ion Optix LLC) were lowered into the solution several times to create a thin coating of Myotak which was allowed to dry for 90 seconds before the probes were submersed into the cell-containing bath. […] The Myostretcher apparatus (Ion Optix LLC) was used to stretch myocytes by roughly 10% over either a 200 ms (diastolic) or 5 s (slow) interval while force and sarcomere length were recorded using the Ion Wizard software and MyoCam imaging system (live FFT). […]

Test [2] relates to ZSF1 obese rats. The experiment in a line: Echocardiography and invasive hemodynamics in HFpEF rats. Format: in vivo, rat. The source says:
FIG. 21: VASHi acutely improves diastolic function in HFpEF rats. A) Echocardiographic assessments of left ventricular diastolic function in ZSF1 Lean and Obese animals+/−SVC_02 treatment. Improved E/A ratio (marker of the function of the left ventricle of the heart) and mitral valve deceleration time indicate improved diastolic function and faster ventricular relaxation upon VASH inhibition in ZSF1 obese rats. B) Hemodynamic measurements of left ventricular diastolic function in ZSF1 Lean and Obese animals+/−SVC_02 treatment. Improved tau (left ventricular diastolic time constant) and dP/dTmin (rate of ventricular relaxation) indicate more rapid ventricular relaxation upon VASH inhibition in ZSF1 obese rats.
Echocardiography measurements were acquired Vevo2100 Ultrasound System (VisualSonics Inc., Toronto, Ontario, Canada) with a MS250 (13-24 MHz) transducer. Animals were sedated with inhaled isoflurane (2-3%). Parasternal long axis, parasternal short axis, apical four chamber, and apical two chamber views were acquired to assess cardiac structure and function. Diastology was assessed using pulse wave and tissue doppler imaging. The protocol used was based on recommendations from the European Society of Cardiology Working Group on Myocardial Function (Zacchigna S et al. 2021).
Animals were induced with isoflurane (5%) before being intubated and mechanically supported. Anesthesia plane was maintained using isoflurane (2-3%). A 2-French pressure-conductance catheter (Transonic Systems Inc., Ithaca, New York, USA) was calibrated using echo derived left ventricular volumes. The right common carotid artery was then dissected, and the catheter was advanced in a retrograde fashion into the left ventricle as previously described. Data were acquired using PowerLab and LabChart Pro (ADInstruments) and analyzed offline using LabChart Pro (ADInstruments).

For the molecule `O=C(O)CCC[C@H](NC(=O)[C@H]1O[C@@H]1C(=O)C[C@@H](Cc1ccc(OCc2ccccc2)cc1)C(=O)O)C(=O)NCCc1ccccc1` [SVC_01], the viscoelastic longitudinal stiffness entry in test [1] is listed as “viscoelastic longitudinal stiffness is reduced”.
Turning to `CCOC(=O)[C@H](Cc1ccc(OCC)cc1)NC(=O)[C@H]1O[C@@H]1C(=O)N[C@@H](Cc1ccc(OCC)cc1)C(=O)OCC` [SVC_02], in test [2] (echocardiography), the E/A ratio result is “Improved” and the “mitral valve deceleration time” value was “Improved”. In test [2] (hemodynamics), the “dP/dTmin (rate of ventricular relaxation)” value is reported as “Improved” and the “tau (left ventricular diastolic time constant)” value is recorded as “Improved”.
